Data taken from US12589158B2 (priority 2022, dated 2026).

assay: Pharmacokinetics following single administration in SD rat; parameters: species or system SD rats; settings: in vivo, sc, 50 nmol/kg
Description: The compound is administrated to male SD rats (230-268 g, n=3) at a dose of 50.0 nmol/kg (s.c.) or 25.0 nmol/kg (i.v.). […] 30.0 μL of thawed plasma sample is taken. 150 μL of acetonitrile solution (containing 5 ng mL^−1 Verapamil, 50 ng·mL^−1 Glibenclamide, 200 ng·mL^−1 Tolbutamide and 200 ng·mL^−1 Diclofenac) are added to precipitate protein. The mixture is vortexed for 5 minutes, and centrifuged at 3700 rpm for 8 minutes. 70.0 μL of the supernatant is taken, into which 70.0 μL of 0.5% aqueous formic acid solution is added. The mixture is vortexed for 5 minutes. 15 μL of the mixture solution is sampled and injected into the LC-MS/MS to determine the drug concentration in plasma. 20.0 μL of thawed plasma sample is taken. 60 μL of acetonitrile solution (containing 5 ng mL^−1 Verapamil, 50 ng·mL^−1 Glibenclamide, 200 ng·mL^−1 Tolbutamide and 200 ng·mL^−1 Diclofenac) are added to precipitate protein. […] The mixture is vortexed for 10 minutes. 10.0 μL of the mixture solution is sampled and injected into the LC-MS/MS to determine the drug concentration in plasma. 30.0 μL of thawed plasma sample is taken. 150 μL of acetonitrile solution (containing 5 ng mL^−1 Verapamil, 50 ng mL^−1 Glibenclamide, 200 ng·mL^−1 Tolbutamide and 200 ng·mL^−1 Diclofenac) are added to precipitate protein. The mixture is vortexed for 5 minutes, and centrifuged at 3700 rpm for 8 minutes. 70.0 μL of the supernatant is taken, into which 70.0 μL of 0.5% aqueous formic acid solution is added. The mixture is vortexed for 5 minutes. 10.0 μL of the mixture solution is sampled and injected into the LC-MS/MS to determine the drug concentration in plasma.

Compound	MRT inf [h]	MRT last [h]
CC[C@H](C)[C@H](NC(=O)C(C)(C)NC(=O)[C@H](Cc1ccc(O)cc1)NC(=O)[C@H](CC(=O)O)NC(=O)[C@H](CO)NC(=O)[C@@H](NC(=O)C(C)(Cc1ccccc1)NC(=O)[C@@H](NC(=O)CNC(=O)[C@H](CCC(=O)O)NC(=O)C(C)(C)NC(=O)[C@@H](N)Cc1ccc(O)cc1)[C@@H](C)O)[C@@H](C)O)C(=O)NC(C)(C)C(=O)N[C@@H](CC(C)C)C(=O)N[C@@H](CC(=O)O)C(=O)N[C@@H](CCCCN)C(=O)N[C@@H](CCC(N)=O)C(=O)N[C@@H](C)C(=O)N[C@@H](CCC(N)=O)C(=O)N[C@@H](C)C(=O)N[C@@H](CCC(=O)O)C(=O)N[C@@H](Cc1ccccc1)C(=O)N[C@H](C(=O)N[C@@H](CCCCNC(=O)COCCOCCNC(=O)COCCOCCNC(=O)CC[C@H](NC(=O)CCCCCCCCCCCCCCCCC(=O)O)C(=O)O)C(=O)N[C@@H](Cc1c[nH]c2ccccc12)C(=O)N[C@@H](CC(C)C)C(=O)N[C@@H](CC(C)C)C(=O)N[C@@H](CCCCN)C(=O)NCC(=O)NCC(=O)N1CCC[C@H]1C(=O)N[C@@H](CO)C(=O)N[C@@H](CO)C(=O)NCC(=O)N[C@@H](C)C(=O)N1CCC[C@H]1C(=O)N1CCC[C@H]1C(=O)N1CCC[C@H]1C(=O)N[C@@H](CO)C(=O)N[C@@H](CCCCN)C(N)=O)C(C)C (some centres unmarked) [P007]	25.7 ± 1.69	21.4 ± 1.87
CC[C@H](C)[C@H](NC(=O)C(C)(C)NC(=O)[C@H](Cc1ccc(O)cc1)NC(=O)[C@H](CC(=O)O)NC(=O)[C@H](CO)NC(=O)[C@@H](NC(=O)C(C)(Cc1ccccc1)NC(=O)[C@@H](NC(=O)CNC(=O)[C@H](CCC(=O)O)NC(=O)C(C)(C)NC(=O)[C@@H](N)Cc1ccc(O)cc1)[C@@H](C)O)[C@@H](C)O)C(=O)NC(C)(C)C(=O)N[C@@H](CC(C)C)C(=O)N[C@@H](CC(=O)O)C(=O)N[C@@H](CCCCN)C(=O)N[C@@H](CCC(N)=O)C(=O)N[C@@H](C)C(=O)N[C@@H](CCC(N)=O)C(=O)N[C@@H](C)C(=O)N[C@@H](CCC(=O)O)C(=O)N[C@@H](Cc1ccccc1)C(=O)N[C@H](C(=O)N[C@@H](CCCCN)C(=O)N[C@@H](Cc1c[nH]c2ccccc12)C(=O)N[C@@H](CC(C)C)C(=O)N[C@@H](CC(C)C)C(=O)N[C@@H](CCCCNC(=O)COCCOCCNC(=O)COCCOCCNC(=O)CC[C@H](NC(=O)CCCCCCCCCCCCCCCCC(=O)O)C(=O)O)C(=O)NCC(=O)NCC(=O)N1CCC[C@H]1C(=O)N[C@@H](CO)C(=O)N[C@@H](CO)C(=O)NCC(=O)N[C@@H](C)C(=O)N1CCC[C@H]1C(=O)N1CCC[C@H]1C(=O)N1CCC[C@H]1C(=O)N[C@@H](CO)C(=O)N[C@@H](CCCCN)C(N)=O)C(C)C (some centres unmarked) [P008]	25.4	21 ± 1.85
CC[C@H](C)[C@H](NC(=O)C(C)(C)NC(=O)[C@H](Cc1ccc(O)cc1)NC(=O)[C@H](CC(=O)O)NC(=O)[C@H](CO)NC(=O)[C@@H](NC(=O)C(C)(Cc1ccccc1)NC(=O)[C@@H](NC(=O)CNC(=O)[C@H](CCC(=O)O)NC(=O)C(C)(C)NC(=O)[C@@H](N)Cc1ccc(O)cc1)[C@@H](C)O)[C@@H](C)O)C(=O)NC(C)(C)C(=O)N[C@@H](CC(C)C)C(=O)N[C@@H](CC(=O)O)C(=O)N[C@@H](CCCCN)C(=O)N[C@@H](CCC(N)=O)C(=O)N[C@@H](C)C(=O)N[C@@H](CCC(N)=O)C(=O)N[C@@H](C)C(=O)N[C@@H](CCC(=O)O)C(=O)N[C@@H](Cc1ccccc1)C(=O)N[C@H](C(=O)N[C@@H](CCCCNC(=O)COCCOCCNC(=O)COCCOCCNC(=O)CC[C@H](NC(=O)CCCCCCCCCCCCCCCCCCC(=O)O)C(=O)O)C(=O)N[C@@H](Cc1c[nH]c2ccccc12)C(=O)N[C@@H](CC(C)C)C(=O)N[C@@H](CC(C)C)C(=O)N[C@@H](CCCCN)C(=O)NCC(=O)NCC(=O)N1CCC[C@H]1C(=O)N[C@@H](CO)C(=O)N[C@@H](CO)C(=O)NCC(=O)N[C@@H](C)C(=O)N1CCC[C@H]1C(=O)N1CCC[C@H]1C(=O)N1CCC[C@H]1C(=O)N[C@@H](CO)C(=O)N[C@@H](CCCCN)C(N)=O)C(C)C (some centres unmarked) [P013]	29.9 ± 1.33	26.2 ± 0.7
CC[C@H](C)[C@H](NC(=O)C(C)(C)NC(=O)[C@H](Cc1ccc(O)cc1)NC(=O)[C@H](CC(=O)O)NC(=O)[C@H](CO)NC(=O)[C@@H](NC(=O)C(C)(Cc1ccccc1)NC(=O)[C@@H](NC(=O)CNC(=O)[C@H](CCC(=O)O)NC(=O)C(C)(C)NC(=O)[C@@H](N)Cc1ccc(O)cc1)[C@@H](C)O)[C@@H](C)O)C(=O)NC(C)(C)C(=O)N[C@@H](CC(C)C)C(=O)N[C@@H](CC(=O)O)C(=O)N[C@@H](CCCCN)C(=O)N[C@@H](CCC(N)=O)C(=O)N[C@@H](C)C(=O)N[C@@H](CCC(N)=O)C(=O)N[C@@H](C)C(=O)N[C@@H](CCC(=O)O)C(=O)N[C@@H](Cc1ccccc1)C(=O)N[C@H](C(=O)N[C@@H](CCCCN)C(=O)N[C@@H](Cc1c[nH]c2ccccc12)C(=O)N[C@@H](CC(C)C)C(=O)N[C@@H](CC(C)C)C(=O)N[C@@H](CCCCNC(=O)COCCOCCNC(=O)COCCOCCNC(=O)CC[C@H](NC(=O)CCCCCCCCCCCCCCCCCCCCC(=O)O)C(=O)O)C(=O)NCC(=O)NCC(=O)N1CCC[C@H]1C(=O)N[C@@H](CO)C(=O)N[C@@H](CO)C(=O)NCC(=O)N[C@@H](C)C(=O)N1CCC[C@H]1C(=O)N1CCC[C@H]1C(=O)N1CCC[C@H]1C(=O)N[C@@H](CO)C(=O)N[C@@H](CCCCN)C(N)=O)C(C)C (some centres unmarked) [P017]	36.9 ± 3.46	27.9 ± 2.99
CC[C@H](C)[C@H](NC(=O)C(C)(C)NC(=O)[C@H](Cc1ccc(O)cc1)NC(=O)[C@H](CC(=O)O)NC(=O)[C@H](CO)NC(=O)[C@@H](NC(=O)C(C)(Cc1ccccc1)NC(=O)[C@@H](NC(=O)CNC(=O)[C@H](CCC(=O)O)NC(=O)C(C)(C)NC(=O)[C@@H](N)Cc1ccc(O)cc1)[C@@H](C)O)[C@@H](C)O)C(=O)NC(C)(C)C(=O)N[C@@H](CC(C)C)C(=O)N[C@@H](CC(=O)O)C(=O)N[C@@H](CCCCN)C(=O)N[C@@H](CCC(N)=O)C(=O)N[C@@H](C)C(=O)N[C@@H](CCC(N)=O)C(=O)N[C@@H](C)C(=O)N[C@@H](CCC(=O)O)C(=O)N[C@@H](Cc1ccccc1)C(=O)N[C@H](C(=O)N[C@@H](CCCCN)C(=O)N[C@@H](Cc1c[nH]c2ccccc12)C(=O)N[C@@H](CC(C)C)C(=O)N[C@@H](CC(C)C)C(=O)N[C@@H](CCCCNC(=O)COCCOCCNC(=O)COCCOCCNC(=O)CC[C@H](NC(=O)CC[C@H](NC(=O)CC[C@H](NC(=O)CCCCCCCCCCCCCCCCC(=O)O)C(=O)O)C(=O)O)C(=O)O)C(=O)NCC(=O)NCC(=O)N1CCC[C@H]1C(=O)N[C@@H](CO)C(=O)N[C@@H](CO)C(=O)NCC(=O)N[C@@H](C)C(=O)N1CCC[C@H]1C(=O)N1CCC[C@H]1C(=O)N1CCC[C@H]1C(=O)N[C@@H](CO)C(=O)N[C@@H](CCCCN)C(N)=O)C(C)C (some centres unmarked) [P018]	33.4 ± 7	28.5 ± 4.45
CC[C@H](C)[C@H](NC(=O)C(C)(C)NC(=O)[C@H](Cc1ccc(O)cc1)NC(=O)[C@H](CC(=O)O)NC(=O)[C@H](CO)NC(=O)[C@@H](NC(=O)C(C)(Cc1ccccc1)NC(=O)[C@@H](NC(=O)CNC(=O)[C@H](CCC(=O)O)NC(=O)C(C)(C)NC(=O)[C@@H](N)Cc1ccc(O)cc1)[C@@H](C)O)[C@@H](C)O)C(=O)NC(C)(C)C(=O)N[C@@H](CC(C)C)C(=O)N[C@@H](CC(=O)O)C(=O)N[C@@H](CCCCN)C(=O)N[C@@H](CCC(N)=O)C(=O)N[C@@H](C)C(=O)N[C@@H](CCC(N)=O)C(=O)N[C@@H](C)C(=O)N[C@@H](CCC(=O)O)C(=O)N[C@@H](Cc1ccccc1)C(=O)N[C@H](C(=O)N[C@@H](CCCCN)C(=O)N[C@@H](Cc1c[nH]c2ccccc12)C(=O)N[C@@H](CC(C)C)C(=O)N[C@@H](CC(C)C)C(=O)N[C@@H](CCCCNC(=O)COCCOCCNC(=O)COCCOCCNC(=O)COCCOCCNC(=O)CC[C@H](NC(=O)CCCCCCCCCCCCCCCCC(=O)O)C(=O)O)C(=O)NCC(=O)NCC(=O)N1CCC[C@H]1C(=O)N[C@@H](CO)C(=O)N[C@@H](CO)C(=O)NCC(=O)N[C@@H](C)C(=O)N1CCC[C@H]1C(=O)N1CCC[C@H]1C(=O)N1CCC[C@H]1C(=O)N[C@@H](CO)C(=O)N[C@@H](CCCCN)C(N)=O)C(C)C (some centres unmarked) [P019]	18.3 ± 2.76	17.1 ± 2.55

assay: Pharmacokinetics in cynomolgus monkeys; settings: cynomolgus monkey, in vivo, sc, 25 nmol/kg
Description: After subcutaneous or intravenous administration to cynomolgus monkeys, plasma is collected and the drug concentration in plasma is determined to illustrate the in vivo pharmacokinetic properties of the compound according to the present invention. The compound is dissolved in 1.4% PG in 8 mM Na2HPO4 Buffer (pH 7.39), and filtered through a filter membrane (PTFE, 0.45 μm) to obtain 25 and 12.5 nmol/mL solution of the compound respectively. The obtained solutions are administered to cynomolgus monkeys (4-8 kg) at a dose of 25 nmol/kg subcutaneously (s.c.) or 12.5 nmol/kg intravenously (i.v.). […] The blood samples are centrifuged at 2200 g for 10 minutes to obtain a plasma, which is stored at −90° C. to −60° C. for further analysis and assay.
70.0 μL of thawed plasma sample is taken. 70 μL of acetonitrile (containing 1 ng/ml of the internal standard) is added to precipitate protein. The mixture is vortexed for 1 minute, and centrifuged at 14000 rpm for 10 minutes. 60.0 μL of the supernatant is taken, into which 60.0 μL of 0.5% aqueous formic acid solution is added. The mixture is vortexed for 5 minutes. 10 μL of the mixture solution is sampled and injected into the LC-MS/MS to determine the drug concentration in plasma.
Based on the drug concentration in plasma of the compounds in the cynomolgus monkeys, the pharmacokinetic parameters are calculated by applying the software Winnolin 8.2 in a non-compartmental model, and the results are shown in Table 9 and Table 10 below.

Compound	MRT inf [h]	MRT last [h]
CC[C@H](C)[C@H](NC(=O)C(C)(C)NC(=O)[C@H](Cc1ccc(O)cc1)NC(=O)[C@H](CC(=O)O)NC(=O)[C@H](CO)NC(=O)[C@@H](NC(=O)C(C)(Cc1ccccc1)NC(=O)[C@@H](NC(=O)CNC(=O)[C@H](CCC(=O)O)NC(=O)C(C)(C)NC(=O)[C@@H](N)Cc1ccc(O)cc1)[C@@H](C)O)[C@@H](C)O)C(=O)NC(C)(C)C(=O)N[C@@H](CC(C)C)C(=O)N[C@@H](CC(=O)O)C(=O)N[C@@H](CCCCN)C(=O)N[C@@H](CCC(N)=O)C(=O)N[C@@H](C)C(=O)N[C@@H](CCC(N)=O)C(=O)N[C@@H](C)C(=O)N[C@@H](CCC(=O)O)C(=O)N[C@@H](Cc1ccccc1)C(=O)N[C@H](C(=O)N[C@@H](CCCCN)C(=O)N[C@@H](Cc1c[nH]c2ccccc12)C(=O)N[C@@H](CC(C)C)C(=O)N[C@@H](CC(C)C)C(=O)N[C@@H](CCCCNC(=O)COCCOCCNC(=O)COCCOCCNC(=O)CC[C@H](NC(=O)CCCCCCCCCCCCCCCCCCCCC(=O)O)C(=O)O)C(=O)NCC(=O)NCC(=O)N1CCC[C@H]1C(=O)N[C@@H](CO)C(=O)N[C@@H](CO)C(=O)NCC(=O)N[C@@H](C)C(=O)N1CCC[C@H]1C(=O)N1CCC[C@H]1C(=O)N1CCC[C@H]1C(=O)N[C@@H](CO)C(=O)N[C@@H](CCCCN)C(N)=O)C(C)C (some centres unmarked) [P017]	77.8 ± 12.2	76.4 ± 12.7
